The test system of the assay is primary rat mixed cortical cells. Nature of the assay: In vitro myelination assay (MBP positive myelin strands, fold myelin pixels above background). The class given is cell-based. The conditions noted are these: Rattus norvegicus, relative to baseline of no added compound; for fold induction at 1 µM: 1.0 μM compound, read-out: Fold myelin pixels above background, 1.0 μM; for fold induction at 10 µM: 10.0 μM compound, read-out: Fold myelin pixels above background, 10.0 μM. The method in brief:
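P1 rat cortical cells (neurons, OPCs, oligodendrocytes, astrocytes, microglia) were cultured 14 days at 37 °C with compound, with half-medium changes containing 1× compound on days 6 and 10. Fixed cells were immunostained for MBP and imaged at 10×. Total MBP myelin pixels per well were expressed as fold above no-compound baseline at 1.0 μM and 10.0 μM.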

For `Cc1cc(Nc2ncn(-c3ccccc3)n2)cc(O[C@H]2CCN(C3COC3)C2)c1` [Compound 239, N-[3-methyl-5-[(3S)-1-(oxetan-3-yl)pyrrolidin-3-yl]oxy-phenyl]-1-phenyl-1,2,4-triazol-3-amine], the fold induction at 1 µM is 1000 to 10000 and the fold induction at 10 µM is not above 1.

`Cc1cc(Nc2ncn(-c3cc(F)cc(F)c3)n2)cc(NC2COC2)c1` [Compound 240, N3-[1-(3,5-difluorophenyl)-1,2,4-triazol-3-yl]-5-methyl-N1-(oxetan-3-yl)benzene-1,3-diamine]: the fold induction at 1 µM is 100 to 1000 and the fold induction at 10 µM fell in the range of 1 to 10.

For the molecule `Fc1cc(Nc2ncn(-c3cccc(C(F)(F)F)c3)n2)cc(N2CCCC2)c1` [Compound 241, N-(3-fluoro-5-pyrrolidin-1-yl-phenyl)-1-[3-(trifluoromethyl)phenyl]-1,2,4-triazol-3-amine], the fold induction at 1 µM was not above 1 and the fold induction at 10 µM was not above 1.

Regarding `Cc1cc(Nc2ncn(-c3cc(F)cc(F)c3)n2)cc(C2(O)CCN(C)C2)c1` (stereo not drawn) [Compound 242, 3-[3-[[1-(3,5-difluorophenyl)-1,2,4-triazol-3-yl]amino]-5-methyl-phenyl]-1-methyl-pyrrolidin-3-ol], the fold induction at 1 µM lay in the range of 10 to 100 and the fold induction at 10 µM is not above 1.

In the case of `Cc1cc(Nc2ncn(-c3cc(F)cc(F)c3)n2)cc(N2CCN(C3CCOCC3)CC2)c1` [Compound 243, 1-(3,5-difluorophenyl)-N-[3-methyl-5-(4-tetrahydropyran-4-ylpiperazin-1-yl)phenyl]-1,2,4-triazol-3-amine], the fold induction at 1 µM fell in the range of 100 to 1000 and the fold induction at 10 µM was not above 1.

For the molecule `CC1CCN(c2cc(Nc3ncn(-c4cc(F)cc(F)c4)n3)cc(C3CC3)n2)CC1` [Compound 244, 2-cyclopropyl-N-[1-(3,5-difluorophenyl)-1,2,4-triazol-3-yl]-6-(4-methyl-1-piperidyl)pyridin-4-amine], the fold induction at 1 µM fell in the range of 1 to 10 and the fold induction at 10 µM was 10 to 100.

`COc1cc(OC)cc(-n2cnc(Nc3cc(C4CC4)nc(N4CC[C@@H](F)C4)c3)n2)c1` [Compound 245, 2-cyclopropyl-N-[1-(3,5-dimethoxyphenyl)-1,2,4-triazol-3-yl]-6-[(3R)-3-fluoropyrrolidin-1-yl]pyridin-4-amine]: the fold induction at 1 µM was 1 to 10 and the fold induction at 10 µM was 10 to 100.

On to `COCC1CCN(c2cc(Cl)cc(Nc3ncn(-c4ccccc4)n3)c2)CC1` [Compound 246, N-[3-chloro-5-[4-(methoxymethyl)-1-piperidyl]phenyl]-1-phenyl-1,2,4-triazol-3-amine], for which the fold induction at 1 µM lay in the range of 10 to 100 and the fold induction at 10 µM was in the range of 100 to 1000.

Take `Cc1cc(Nc2ncn(-c3ccccc3)n2)cc(C2CCCN(C3COC3)C2)c1` (stereo not drawn) [Compound 248, N-[3-methyl-5-[1-(oxetan-3-yl)-3-piperidyl]phenyl]-1-phenyl-1,2,4-triazol-3-amine]: the fold induction at 1 µM fell in the range of 100 to 1000 and the fold induction at 10 µM lay in the range of 1 to 10.

For the molecule `Cc1cc(Nc2ncn(-c3ccnc(F)c3)n2)cc(NC2CCN(C3COC3)C2)c1` (stereo not drawn) [Compound 249, N3-[1-(2-fluoro-4-pyridyl)-1,2,4-triazol-3-yl]-5-methyl-N1-[1-(oxetan-3-yl)pyrrolidin-3-yl]benzene-1,3-diamine], the fold induction at 1 µM was in the range of 10 to 100 and the fold induction at 10 µM is not above 1.

With `c1cncc(-n2cnc(Nc3cc(C4CCOCC4)cc(C4CCOCC4)c3)n2)c1` [Compound 250, N-[3,5-di(tetrahydropyran-4-yl)phenyl]-1-(3-pyridyl)-1,2,4-triazol-3-amine], the fold induction at 1 µM was 100 to 1000 and the fold induction at 10 µM lay within 10 to 100.

As to `c1ccc(-n2cnc(Nc3cc(C4CCOCC4)cc(N4CCOCC4)c3)n2)cc1` [Compound 251, N-(3-morpholino-5-tetrahydropyran-4-yl-phenyl)-1-phenyl-1,2,4-triazol-3-amine], the fold induction at 1 µM lay within 100 to 1000 and the fold induction at 10 µM was in the range of 1 to 10.

Regarding `Cc1cc(Nc2ncn(-c3cccc(OC(F)(F)F)c3)n2)cc(N2CCN(C3COC3)CC2)c1` [Compound 252, N-[3-methyl-5-[4-(oxetan-3-yl)piperazin-1-yl]phenyl]-1-[3-(trifluoromethoxy)phenyl]-1,2,4-triazol-3-amine], the fold induction at 1 µM is 1000 to 10000 and the fold induction at 10 µM lay in the range of 10 to 100.

`COCCN1CCN(c2cc(C)cc(Nc3ncn(-c4ccccc4)n3)c2)CC1` [Compound 253, N-[3-[4-(2-methoxyethyl)piperazin-1-yl]-5-methyl-phenyl]-1-phenyl-1,2,4-triazol-3-amine]: the fold induction at 1 µM fell in the range of 1000 to 10000 and the fold induction at 10 µM fell in the range of 10 to 100.

Consider `COc1cc(-n2cnc(Nc3cc(C)cc(N4CCN(C5COC5)CC4)c3)n2)ncn1` [Compound 254, 1-(6-methoxypyrimidin-4-yl)-N-[3-methyl-5-[4-(oxetan-3-yl)piperazin-1-yl]phenyl]-1,2,4-triazol-3-amine], for which the fold induction at 1 µM is not above 1 and the fold induction at 10 µM lay in the range of 100 to 1000.

On to `CCc1cc(F)cc(-n2cnc(Nc3cc(C)cc(N4CCN(C)CC4)c3)n2)c1` [Compound 255, 1-(3-ethyl-5-fluoro-phenyl)-N-[3-methyl-5-(4-methylpiperazin-1-yl)phenyl]-1,2,4-triazol-3-amine], for which the fold induction at 1 µM was 100 to 1000 and the fold induction at 10 µM lay within 100 to 1000.

As for `CN1CCN(c2cc(Nc3ncn(-c4cccc(F)c4)n3)cc(C(F)(F)F)c2)CC1` [Compound 257, 1-(3-fluorophenyl)-N-[3-(4-methylpiperazin-1-yl)-5-(trifluoromethyl)phenyl]-1,2,4-triazol-3-amine], the fold induction at 1 µM was in the range of 100 to 1000 and the fold induction at 10 µM was not above 1.

Consider `COc1cc(Nc2ncn(-c3cccc(F)c3)n2)cc(N2CCN(C3COC3)CC2)c1` [Compound 258, 1-(3-fluorophenyl)-N-[3-methoxy-5-[4-(oxetan-3-yl)piperazin-1-yl]phenyl]-1,2,4-triazol-3-amine], for which the fold induction at 1 µM fell in the range of 100 to 1000 and the fold induction at 10 µM was in the range of 1 to 10.

Consider `Cc1cc(Nc2ncn(-c3ccccc3)n2)cc(N2CCNC(C)C2)c1` (stereo not drawn) [Compound 259, N-[3-methyl-5-(3-methylpiperazin-1-yl)phenyl]-1-phenyl-1,2,4-triazol-3-amine], for which the fold induction at 1 µM lay within 1000 to 10000 and the fold induction at 10 µM was not above 1.

For the molecule `Cc1cc(Nc2ncn(-c3ccccc3)n2)cc(C2CCN(C3COC3)C2)c1` (stereo not drawn) [Compound 260, N-[3-methyl-5-[1-(oxetan-3-yl)pyrrolidin-3-yl]phenyl]-1-phenyl-1,2,4-triazol-3-amine], the fold induction at 1 µM fell in the range of 1000 to 10000 and the fold induction at 10 µM is not above 1.

For the molecule `Cc1cc(Nc2ncn(-c3cc(F)cc(F)c3)n2)cc(C2CCN(C3CC3)CC2)c1` [Compound 261, N-[3-(1-cyclopropyl-4-piperidyl)-5-methyl-phenyl]-1-(3,5-difluorophenyl)-1,2,4-triazol-3-amine], the fold induction at 1 µM was in the range of 10 to 100 and the fold induction at 10 µM was 10 to 100.

With `Cc1cc(Nc2ncn(-c3cncc(Cl)c3)n2)cc(N2CCN(C)CC2)c1` [Compound 262, 1-(5-chloro-3-pyridyl)-N-[3-methyl-5-(4-methylpiperazin-1-yl)phenyl]-1,2,4-triazol-3-amine], the fold induction at 1 µM lay in the range of 10 to 100 and the fold induction at 10 µM was 100 to 1000.

`Cc1cc(Nc2ncn(-c3ccc(F)c(F)c3)n2)cc(N2CCN(C)CC2)n1` [Compound 263, N-[1-(3,4-difluorophenyl)-1,2,4-triazol-3-yl]-2-methyl-6-(4-methylpiperazin-1-yl)pyridin-4-amine]: the fold induction at 1 µM is 10 to 100 and the fold induction at 10 µM lay within 100 to 1000.

In the case of `CCc1cc(Nc2ncn(-c3cc(F)cc(F)c3)n2)cc(N2CCN(C3(C)COC3)CC2)c1` [Compound 264, 1-(3,5-difluorophenyl)-N-[3-ethyl-5-[4-(3-methyloxetan-3-yl)piperazin-1-yl]phenyl]-1,2,4-triazol-3-amine], the fold induction at 1 µM was in the range of 10 to 100 and the fold induction at 10 µM fell in the range of 10 to 100.

Take `Cc1cc(Nc2ncn(-c3ccc(F)c(F)c3)n2)cc(N2CCOCC2)n1` [Compound 265, N-[1-(3,4-difluorophenyl)-1,2,4-triazol-3-yl]-2-methyl-6-morpholino-pyridin-4-amine]: the fold induction at 1 µM was in the range of 100 to 1000 and the fold induction at 10 µM fell in the range of 100 to 1000.

In the case of `CC(=O)N1CCCC(c2cc(C)cc(Nc3ncn(-c4cc(F)cc(F)c4)n3)c2)C1` (stereo not drawn) [Compound 266, 1-[3-[3-[[1-(3,5-difluorophenyl)-1,2,4-triazol-3-yl]amino]-5-methyl-phenyl]-1-piperidyl]ethanone], the fold induction at 1 µM lay within 10 to 100 and the fold induction at 10 µM was in the range of 100 to 1000.

In the case of `CNC1CCN(c2cc(C)cc(Nc3ncn(-c4cc(F)cc(F)c4)n3)c2)C1` (stereo not drawn) [Compound 267, 1-(3,5-difluorophenyl)-N-[3-methyl-5-[3-(methylamino)pyrrolidin-1-yl]phenyl]-1,2,4-triazol-3-amine], the fold induction at 1 µM lay within 10 to 100 and the fold induction at 10 µM was not above 1.

As to `Fc1cc(Nc2ncn(-c3cc(F)cc(F)c3)n2)cc(C2CCN(C3COC3)C2)c1` (stereo not drawn) [Compound 268, 1-(3,5-difluorophenyl)-N-[3-fluoro-5-[1-(oxetan-3-yl)pyrrolidin-3-yl]phenyl]-1,2,4-triazol-3-amine], the fold induction at 1 µM fell in the range of 100 to 1000 and the fold induction at 10 µM lay within 1000 to 10000.

With `Cc1cc(Nc2ncn(-c3ccc(F)cc3)n2)cc(N2CCCC2)c1` [Compound 269, 1-(4-fluorophenyl)-N-(3-methyl-5-pyrrolidin-1-yl-phenyl)-1,2,4-triazol-3-amine], the fold induction at 1 µM lay within 1 to 10 and the fold induction at 10 µM lay within 10 to 100.

For `Cc1cc(Nc2ncn(-c3cccnc3)n2)cc(C2COC2)c1` [Compound 270, N-[3-methyl-5-(oxetan-3-yl)phenyl]-1-(3-pyridyl)-1,2,4-triazol-3-amine], the fold induction at 1 µM lay in the range of 100 to 1000 and the fold induction at 10 µM lay in the range of 100 to 1000.

Values taken from US10766869B2, “Triazoles for the treatment of demyelinating dieases” (Vertex Pharmaceuticals Incorporated, priority 2015, dated 2020).
